Assay results: ChEMBL document CHEMBL1201862, “PubChem BioAssay data set” (2004)
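A five-concentration, 48-hour dose response in 96-well plates underlies each endpoint, interpolated linearly between surrounding concentrations. GI50: concentration for 50% inhibition of growth.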 Calls of active or inactive are those of the source. Cut-off read from the data, not from the text of the source: active = GI50 up to about 1.1 µM and inactive = higher.

How the values were obtained:
Test in all cases: NCI anticancer screen, dose series, 48 h
786-0 = system: 786-0
A549 = system: A549
CAKI-1 = system: CAKI-1
CCRF-CEM = system: CCRF-CEM
COLO 205 = system: COLO 205
DLD-1 = system: DLD-1
DMS-114 = system: DMS-114
EKVX = system: EKVX
HCC 2998 = system: HCC 2998
HCT-116 = system: HCT-116
HL-60 = system: HL-60
HOP-18 = system: HOP-18
HOP-62 = system: HOP-62
HOP-92 = system: HOP-92
HT-29 = system: HT-29
IGROV-1 = system: IGROV-1
K562 = system: K562
KM12 = system: KM12
M14 = system: M14
M19-MEL = system: M19-MEL
MOLT-4 = system: MOLT-4
Malme-3M = system: Malme-3M
NCI-H226 = system: NCI-H226
OVCAR-3 = system: OVCAR-3
OVCAR-4 = system: OVCAR-4
OVCAR-8 = system: OVCAR-8
RPMI-8226 = system: RPMI-8226
SF-295 = system: SF-295
SF-539 = system: SF-539
SK-MEL-2 = system: SK-MEL-2
SK-MEL-5 = system: SK-MEL-5
SK-OV-3 = system: SK-OV-3
SNB-19 = system: SNB-19
SNB-78 = system: SNB-78
SW-620 = system: SW-620
TK-10 = system: TK-10
UACC-257 = system: UACC-257
UACC-62 = system: UACC-62
UO-31 = system: UO-31
A498 = system: A498
ACHN = system: ACHN
DMS-273 = system: DMS-273
HCT-15 = system: HCT-15
KM-20L2 = system: KM-20L2
LXFL 529 = system: LXFL 529
NCI-H23 = system: NCI-H23
NCI-H460 = system: NCI-H460
NCI-H522 = system: NCI-H522
OVCAR-5 = system: OVCAR-5
SF-268 = system: SF-268
SK-MEL-28 = system: SK-MEL-28
SN12C = system: SN12C
SNB-75 = system: SNB-75
U-251 = system: U-251

Question: `CSc1nc(NC2OC(COC(C)=O)C(OC(C)=O)C(OC(C)=O)C2OC(C)=O)c(/N=C(\C)C(C)=O)c(=O)[nH]1` (stereo not given) was tested. Which GI50 (786-0) did it give?
Answer: The GI50 was > 100 µM (inactive).

Question: And the GI50 (A549)?
Answer: The GI50 was > 100 µM (inactive).

Question: What about the GI50 (CAKI-1) of the same molecule?
Answer: Its GI50 is > 100 µM (inactive).

Question: And the GI50 (CCRF-CEM)?
Answer: The GI50 was > 100 µM (inactive).

Question: What about the GI50 (COLO 205) of the same molecule?
Answer: Its GI50 is > 100 µM (inactive).

Question: What about the GI50 (DLD-1) of the same molecule?
Answer: The GI50 was 79.1 µM (inactive).

Question: And the GI50 (DMS-114)?
Answer: Its GI50 is > 100 µM (inactive).

Question: And the GI50 (EKVX)?
Answer: The GI50 was > 100 µM (inactive).

Question: And the GI50 (HCC 2998)?
Answer: The GI50 was > 100 µM (inactive).

Question: And the GI50 (HCT-116)?
Answer: Its GI50 is > 100 µM (inactive).

Question: And the GI50 (HL-60)?
Answer: Its GI50 is > 100 µM (inactive).

Question: What about the GI50 (HOP-18) of the same molecule?
Answer: The GI50 was > 100 µM (inactive).

Question: What about the GI50 (HOP-62) of the same molecule?
Answer: The GI50 was 42.5 µM (inactive).

Question: And the GI50 (HOP-92)?
Answer: Its GI50 is > 100 µM (inactive).

Question: And the GI50 (HT-29)?
Answer: Its GI50 is > 100 µM (inactive).

Question: And the GI50 (IGROV-1)?
Answer: Its GI50 is > 100 µM (inactive).

Question: And the GI50 (K562)?
Answer: The GI50 was > 100 µM (inactive).

Question: What about the GI50 (KM12) of the same molecule?
Answer: Its GI50 is > 100 µM (inactive).

Question: What about the GI50 (M14) of the same molecule?
Answer: Its GI50 is > 100 µM (inactive).

Question: And the GI50 (M19-MEL)?
Answer: The GI50 was > 100 µM (inactive).

Question: What about the GI50 (MOLT-4) of the same molecule?
Answer: Its GI50 is > 100 µM (inactive).

Question: What about the GI50 (Malme-3M) of the same molecule?
Answer: Its GI50 is > 100 µM (inactive).

Question: And the GI50 (NCI-H226)?
Answer: Its GI50 is > 100 µM (inactive).

Question: And the GI50 (OVCAR-3)?
Answer: Its GI50 is > 100 µM (inactive).

Question: And the GI50 (OVCAR-4)?
Answer: The GI50 was > 100 µM (inactive).

Question: What about the GI50 (OVCAR-8) of the same molecule?
Answer: The GI50 was > 100 µM (inactive).

Question: What about the GI50 (RPMI-8226) of the same molecule?
Answer: Its GI50 is > 100 µM (inactive).

Question: What about the GI50 (SF-295) of the same molecule?
Answer: Its GI50 is > 100 µM (inactive).

Question: And the GI50 (SF-539)?
Answer: Its GI50 is > 100 µM (inactive).

Question: And the GI50 (SK-MEL-2)?
Answer: Its GI50 is > 100 µM (inactive).

Question: And the GI50 (SK-MEL-5)?
Answer: Its GI50 is > 100 µM (inactive).

Question: What about the GI50 (SK-OV-3) of the same molecule?
Answer: Its GI50 is > 100 µM (inactive).

Question: And the GI50 (SNB-19)?
Answer: Its GI50 is > 100 µM (inactive).

Question: And the GI50 (SNB-78)?
Answer: Its GI50 is > 100 µM (inactive).

Question: What about the GI50 (SW-620) of the same molecule?
Answer: Its GI50 is > 100 µM (inactive).

Question: What about the GI50 (TK-10) of the same molecule?
Answer: The GI50 was > 100 µM (inactive).

Question: And the GI50 (UACC-257)?
Answer: Its GI50 is > 100 µM (inactive).

Question: And the GI50 (UACC-62)?
Answer: The GI50 was > 100 µM (inactive).

Question: And the GI50 (UO-31)?
Answer: Its GI50 is > 100 µM (inactive).

Question: What does the source list for `O=C1C2=C(c3ccccc31)C(c1ccc(Cl)cc1)NC(S)=N2` (stereo not given)?
Answer: GI50 (786-0): 17.9 µM (inactive); GI50 (A498): 79.1 µM (inactive); GI50 (A549): 19.4 µM (inactive); GI50 (ACHN): 42.7 µM (inactive); GI50 (CAKI-1): 28.4 µM (inactive); GI50 (CCRF-CEM): 24.5 µM (inactive); GI50 (COLO 205): 25.5 µM (inactive); GI50 (DLD-1): 22.8 µM (inactive); GI50 (DMS-114): 22.7 µM (inactive); GI50 (DMS-273): 20.3 µM (inactive); GI50 (EKVX): 36.9 µM (inactive); GI50 (HCT-116): 15.1 µM (inactive); GI50 (HCT-15): 18.1 µM; GI50 (HL-60): 17.5 µM (inactive); GI50 (HOP-62): 28.2 µM (inactive); GI50 (HOP-92): 16 µM (inactive); GI50 (HT-29): 33.8 µM (inactive); GI50 (IGROV-1): 19 µM (inactive); GI50 (K562): 19 µM (inactive); GI50 (KM-20L2): 20.4 µM (inactive); GI50 (KM12): 23.6 µM (inactive); GI50 (LXFL 529): 14.8 µM (inactive); GI50 (M14): 23.3 µM (inactive); GI50 (M19-MEL): 20 µM (inactive); GI50 (MOLT-4): 17.9 µM (inactive); GI50 (Malme-3M): 28.2 µM (inactive); GI50 (NCI-H226): 16.9 µM (inactive); GI50 (NCI-H23): 17.3 µM (inactive); GI50 (NCI-H460): 34.8 µM (inactive); GI50 (NCI-H522): 20.1 µM (inactive); GI50 (OVCAR-3): 20.1 µM (inactive); GI50 (OVCAR-4): 15.5 µM (inactive); GI50 (OVCAR-5): 46.7 µM (inactive); GI50 (OVCAR-8): 20 µM (inactive); GI50 (RPMI-8226): 20.3 µM (inactive); GI50 (SF-268): 17.4 µM (inactive); GI50 (SF-295): 15.5 µM (inactive); GI50 (SF-539): 15.7 µM (inactive); GI50 (SK-MEL-28): 17.1 µM (inactive); GI50 (SK-MEL-2): 23.3 µM (inactive); GI50 (SK-MEL-5): 33.5 µM (inactive); GI50 (SK-OV-3): 69.2 µM (inactive); GI50 (SN12C): 17.2 µM (inactive); GI50 (SNB-19): 26.3 µM (inactive); GI50 (SNB-75): 15.9 µM (inactive); GI50 (SW-620): 20.5 µM (inactive); GI50 (TK-10): 22.8 µM (inactive); GI50 (U-251): 17.5 µM (inactive); GI50 (UACC-257): 41.8 µM (inactive); GI50 (UACC-62): 23 µM (inactive); GI50 (UO-31): 14.9 µM (inactive)
